Laboratory results taken from patent US8178506B2, “Oligomeric compounds and compositions for use in modulation of small non-coding RNAs” (Regulus Therapeutics Inc., priority 2003, dated 2012).
In the oligonucleotide strings, read from the 5' end, every base follows the letter of its sugar. An asterisk marks phosphorothioate; unmarked linkages are phosphodiester. Other units and linkages are bracketed, terminal groups are in braces. A string of capitals states the bases alone. e = 2'-O-(2-methoxyethyl) (MOE); [5mC] = 5-methylcytosine

How the values were obtained:
[1] = test system: differentiated adipocytes; assay: Hallmark genes and triglycerides in differentiated adipocytes; type: cell-based, human; conditions: Table 28; differentiated adipocytes transfected day nine post-differentiation; 250 nM oligonucleotide
Source text: The effect of the oligomeric compounds of the present invention targeting miRNAs on the expression of markers of cellular differentiation was examined in differentiated adipocytes.
As previously described, the HSL, aP2, Glut4, and PPARγ genes play important rolls in the uptake of glucose and the metabolism and utilization of fats. Also as previously described, an increase in triglyceride content is another well-established marker for adipocyte differentiation. Human white preadipocytes (Zen-Bio Inc., Research Triangle Park, N.C.) were grown in preadipocyte media (ZenBio Inc.). After the cells reached confluence (approximately three days), they were exposed to differentiation media (Zen-Bio, Inc.) containing a PPAR-γ agonist, IBMX, dexamethasone, and insulin for three days. Cells were then fed Adipocyte Medium (Zen-Bio, Inc.), which was replaced at 2 to 3 day intervals. One day before transfection, 96-well plates were seeded with 3000 cells/well. Cells were then transfected on day nine post-differentiation, according to standard published procedures with 250 nM oligonucleotide in LIPOFECTIN™ (Invitrogen Corporation, Carlsbad, Calif.) (Monia et al., J. Biol. Chem. 1993 268(19):14514-22). Oligomeric compounds were tested in triplicate on each 96-well plate, and the effect of TNF-α, known to inhibit adipocyte differentiation, was also measured in triplicate. Oligomeric compound treatments and transfectant-only negative controls may be measured up to six times per plate. On day twelve post-differentiation, cells were washed and lysed at room temperature, and the expression of the four hallmark genes, HSL, aP2, Glut4, and PPARγ, as well as triglyceride (TG) accumulation were measured in adipocytes transfected with the uniform 2′-MOE phosphorothioate (PS) previously described in Example 13 as well as the chimeric gapmer oligomeric compounds targeting the mir-143 miRNA and the mir-143 pri-miRNA described in Example 16. On day twelve post-differentiation, cells were lysed in a guanadinium-containing buffer and total RNA was harvested. The amount of total RNA in each sample was determined using a Ribogreen Assay (Molecular Probes, Eugene, Oreg.). Real-time PCR was performed on the total RNA using primer/probe sets for the adipocyte differentiation hallmark genes Glut4, HSL, aP2, and PPARγ. Triglyceride levels as well as mRNA levels for each of the four adipocyte differentiation hallmark genes are expressed relative to control levels (control=treatment with ISIS-29848 (SEQ ID NO: 737)).

[2] = test system: BJ, B16-F10, T47D, T47Dp53 and HeLa cells; assay: Cell cycle assay (propidium iodide flow cytometry), cell line panel; type: cell-based; conditions: 150 nM oligomeric compound, 4.5 μg/ml LIPOFECTIN, after 72 hours, propidium iodide flow cytometry
preadipocytes = assay: Caspase assay in preadipocytes; type: cell-based, human; conditions: untreated control set equal to 1.0
Source text: The effect of oligomeric compounds of the present invention targeting miRNAs was examined in preadipocytes (Zen-Bio, Inc., Research Triangle Park, N.C.) using the fluorometric caspase assay previously described in Example 11.

IGFBP-1 = IGFBP-1 mRNA expression in HepG2 cells; type: cell-based, human; conditions: HepG2, 100 nM oligomeric compound
[3] = Experiment 1, basal (no insulin)
[4] = Experiment 2, 1 nM insulin treated

Row | Substance | Glut4 [1] | HSL [1] | PPAR gamma [1] | TG [1] | aP2 [1] | G1 (percentage of cells in phase of the cell cycle) [2] | G2/M (percentage of cells in phase of the cell cycle) [2] | S (percentage of cells in phase of the cell cycle) [2] | SubG1 (percentage of cells in phase of the cell cycle) [2] | aneuploid (percentage of cells) [2] | Fold Increase over UTC (caspase activity) (preadipocytes) | IGFBP-1 (% UTC) (IGFBP-1; [3]) | IGFBP-1 (% UTC) (IGFBP-1; [4])
1 | 327888 (antisense eA*eA*eT*eG*e[5mC]*e[5mC]*e[5mC]*e[5mC]*eT*eA*eA*eA*eA*eA*eT*e[5mC]*e[5mC]*eT*eT*eA*eT) [compound 327888] | 0.56 | 0.84 | 1.69 | 1.13 | 0.73 | 53.7% | 16.7% | 29.5% | 13.3% | 12.9% | 1.1 fold over UTC |  | 
2 | 327889 (antisense eG*eT*eG*eG*eT*eA*eA*eT*e[5mC]*e[5mC]*e[5mC]*eT*eG*eG*e[5mC]*eA*eA*eT*eG*eT*eG*eA*eT) [compound 327889] | 0.99 | 0.77 | 1.63 | 1.09 | 1.12 | 53.1% | 14.4% | 32.5% | 8.2% | 10.5% | 1.1 fold over UTC | 56 % UTC | 73 % UTC
3 | 327890 (antisense eA*eG*e[5mC]*eA*e[5mC]*eA*eA*eA*e[5mC]*eT*eA*e[5mC]*eT*eA*e[5mC]*e[5mC]*eT*e[5mC]*eA) [compound 327890] | 0.37 | 0.42 | 1.05 | 1.13 | 0.35 |  |  |  |  |  | 1.3 fold over UTC | 99 % UTC | 88 % UTC
4 | 327901 (antisense eT*eG*eA*eG*e[5mC]*eT*eA*e[5mC]*eA*eG*eT*eG*e[5mC]*eT*eT*e[5mC]*eA*eT*e[5mC]*eT*e[5mC]*eA) [compound 327901] | 2.20 | 1.47 | 1.34 | 1.12 | 1.28 | 34.7% | 20.3% | 44.9% | 12% | 13.6% | 2.0 fold over UTC | 133 % UTC | 135 % UTC
5 | 327903 (antisense eA*eA*e[5mC]*eT*eA*eT*eA*e[5mC]*eA*eA*e[5mC]*e[5mC]*eT*eA*e[5mC]*eT*eA*e[5mC]*e[5mC]*eT*e[5mC]*eA) [compound 327903] | 0.36 | 0.53 | 0.91 | 1.12 | 0.56 | 53.7% | 15.4% | 30.9% | 11% | 13.4% | 1.6 fold over UTC | 71 % UTC | 81 % UTC
6 | 327905 (antisense e[5mC]*eA*eG*eA*e[5mC]*eT*e[5mC]*e[5mC]*eG*eG*eT*eG*eG*eA*eA*eT*eG*eA*eA*eG*eG*eA) [compound 327905] | 0.58 | 0.65 | 1.31 | 1.18 | 0.85 | 56.9% | 15% | 28.1% | 8.5% | 14.7% | 1.5 fold over UTC | 107 % UTC | 115 % UTC
7 | 327919 (antisense eG*eA*eA*eA*e[5mC]*e[5mC]*e[5mC]*eA*eG*e[5mC]*eA*eG*eA*e[5mC]*eA*eA*eT*eG*eT*eA*eG*e[5mC]*eT) [compound 327919] | 1.82 | 0.83 | 1.80 | 1.15 | 1.20 | 54.3% | 15.4% | 30.3% | 10.8% | 16% | 1.3 fold over UTC | 96 % UTC | 154 % UTC
8 | 327922 (antisense eT*e[5mC]*eA*eG*eT*eT*eT*eT*eG*e[5mC]*eA*eT*eG*eG*eA*eT*eT*eT*eG*e[5mC]*eA*e[5mC]*eA) [compound 327922] | 0.61 | 1.01 | 0.99 | 1.48 | 0.91 | 50.4% | 18.9% | 30.7% | 10% | 16.8% | 1.0 fold over UTC | 109 % UTC | 104 % UTC
9 | 327925 (antisense eT*eA*eG*e[5mC]*eT*eG*eG*eT*eT*eG*eA*eA*eG*eG*eG*eG*eA*e[5mC]*e[5mC]*eA*eA) [compound 327925] | 0.74 | 1.20 | 1.30 | 1.33 | 0.78 |  |  |  |  |  | 2.0 fold over UTC | 152 % UTC | 166 % UTC
10 | 327934 (antisense eG*eG*eT*eA*e[5mC]*eA*eA*eT*e[5mC]*eA*eA*e[5mC]*eG*eG*eT*e[5mC]*eG*eA*eT*eG*eG*eT) [compound 327934] | 1.52 | 1.97 | 1.54 | 1.43 | 1.50 | 54.4% | 17.4% | 28.2% | 6.6% | 17% | 2.0 fold over UTC | 231 % UTC | 244 % UTC
11 | 327941 (antisense eA*eA*e[5mC]*e[5mC]*e[5mC]*eA*e[5mC]*e[5mC]*eG*eA*e[5mC]*eA*eG*e[5mC]*eA*eA*eT*eG*eA*eA*eT*eG*eT*eT) [compound 327941] | 0.90 | 1.17 | 1.66 | 1.33 | 0.90 | 57.2% | 12.9% | 29.9% | 8.2% | 15.8% | 1.3 fold over UTC | 83 % UTC | 80 % UTC
